Legend:
Assay type in all cases: in vivo
[1] = system: vetch aphid (Megoura viciae); assay: Test B.1 Control of vetch aphid, sprayed broad bean leaf disks in 24-well microtiter plates; conditions: 5 days, aphid mortality and fecundity
Protocol: For evaluating control of vetch aphid (Megoura viciae) through contact or systemic means the test unit consisted of 24-well-microtiter plates containing broad bean leaf disks.
The compounds or mixtures were formulated using a solution containing 75% (v/v) water and 25% (v/v) DMSO. Different concentrations of formulated compounds or mixtures were sprayed onto the leaf disks at 2.5 μl, using a custom built micro atomizer, at two replications.
(§1) For the experimental mixtures in this test identical volumes of both mixing partners at the desired concentrations respectively, were mixed together.
After application, the leaf disks were air-dried and 5-8 adult aphids placed on the leaf disks inside the microtiter plate wells. The aphids were then allowed to suck on the treated leaf disks and incubated at 23±1° C., 50±5% RH for 5 days.
Aphid mortality and fecundity was then visually assessed.

[2] = system: Southern Green Stink Bug (Nezara viridula); assay: Test B.6 Control of Southern Green Stink Bug, dipped green beans and dipped insects; conditions: for Average Control % [observed mortality]: Nezara viridula 4th instar, 5 ppm, after 5 days
Protocol: The compounds and respective mixtures were formulated using a solution containing 50:50 water:acetone with 0.01 wt % Kinetic®. Whole Green Beans were rinsed in a 1% bleach solution, triple rinsed with DI water, and allowed to air dry at least 30 minutes in the fume hood. They were dipped in treatment solutions for approximately 5 seconds and allowed to air dry for another 30 minutes in the fume hood. For maximum exposure, Southern Green Stink Bugs (SGSB, 4th instar) were dipped in treatment solution for approximately 3 seconds and allowed to air dry in a cup lined with filter paper and closed with a vented lid for approximately 10 minutes in the fume hood. Three beans were placed in cups with a dry filter paper in the bottom and a portion cup with a cotton wick for water (=assay arena), and were infested with 4 SGSB per cup. Each treatment was replicated 3-fold (1 replicate=3 beans with 4 SGSB). The assays arenas were held at 27° C. and 45% room humidity. Data were recorded after 5 days as number of insects alive and dead. Nezara viridula mortality (%) was calculated as: [(pre-treatment count−post treatment count)/pre-treatment count]×100.

[3] = system: boll weevil (Anthonomus grandis); assay: Test B.2 Control of boll weevil, insect diet with eggs in 24-well microtiter plates; conditions: 5 days, egg and larval mortality
Protocol: For evaluating control of boll weevil (Anthonomus grandis) the test unit consisted of 24-well-microtiter plates containing an insect diet and 20-30 A. grandis eggs.
The compounds or mixtures were formulated using a solution containing 75% (v/v) water and 25% (v/v) DMSO. Different concentrations of formulated compounds or mixtures were sprayed onto the insect diet at 20 μl, using a custom built micro atomizer, at two replications.
as §1
After application, microtiter plates were incubated at 23±1° C., 50±5% RH for 5 days.
(§2) Egg and larval mortality was then visually assessed.

[4] = system: yellow fever mosquito (Aedes aegypti); assay: Test B.3 Control of yellow fever mosquito, larvae in 96-well microtiter plates; conditions: 2 days, larval mortality
Protocol: Test Principle: Curative Ultrasonic Spraying of Larvae in Liquid Diet
For evaluating control of yellow fever mosquito (Aedes aegypti) the test unit consisted of 96-well-microtiter plates containing 200 μl of tap water per well and 5-15 freshly hatched A. aegypti larvae.
The compounds or mixtures were formulated using a solution containing 75% (v/v) water and 25% (v/v) DMSO. Different concentrations of formulated compounds or mixtures were sprayed onto the insect diet at 2.5 μl, using a custom built micro atomizer, at two replications.
as §1
After application, microtiter plates were incubated at 28±1° C., 80±5% RH for 2 days.
Larval mortality was then visually assessed.

[5] = system: tobacco budworm (Heliothis virescens); assay: Test B.4 Control of tobacco budworm, insect diet with eggs in 96-well microtiter plates; conditions: 5 days, egg and larval mortality
Protocol: For evaluating control of tobacco budworm (Heliothis virescens) the test unit consisted of 96-well-microtiter plates containing an insect diet and 15-25 H. virescens eggs.
The compounds or mixtures were formulated using a solution containing 75% (v/v) water and 25% (v/v) DMSO. Different concentrations of formulated compounds or mixtures were sprayed onto the insect diet at 10 μl, using a custom built micro atomizer, at two replications.
as §1
(§3) After application, microtiter plates were incubated at 28±1° C., 80±5% RH for 5 days.
as §2

[6] = system: Mediterranean fruitfly (Ceratitis capitata); assay: Test B.5 Control of Mediterranean fruitfly, insect diet with eggs in 96-well microtiter plates; conditions: 5 days, egg and larval mortality
Protocol: For evaluating control of Mediterranean fruitfly (Ceratitis capitata) the test unit consisted of 96-well-microtiter plates containing an insect diet and 50-80 C. capitata eggs.
The compounds and respective mixtures were formulated using a solution containing 75% (v/v) water and 25% (v/v) DMSO. Different concentrations of formulated compounds and mixtures were sprayed onto the insect diet at 5 μl, using a custom built micro atomizer, at two replications. For the experimental mixtures in this test identical volumes of both mixing partners at the desired concentrations respectively, were mixed together.
as §3, §2

[7] = Nezara viridula, 120 h, read-out: Average Control % [observed mortality]

CC(C)(C)[C@]1(O)C[C@@H]2OC(=O)C[C@@]23C(=O)O[C@@H]2OC(=O)[C@H](O)[C@]213 [Bilobalid, (3aS,5aR,8aS,9R,10aR)-9-tert-butyl-8,9-dihydroxydihydro-9H-furo[2,3-b]furo[3′,2′;2,3]cyclopenta[1,2-c]furan-2,4,7(3H,8H)-trione]
Average Control % ([1]; 25 ppm): 0% | Average Control % [observed mortality] [2]: 19%

CN(C(=O)c1ccccc1)c1cccc(C(=O)Nc2c(Br)cc(C(F)(C(F)(F)F)C(F)(F)F)cc2C(F)(F)F)c1F [carboxamide compound of formula I]
Average Control % ([3]; 0.5 ppm): 0% | Average Control % ([1]; 0.02 ppm): 0% | Average Control % ([1]; 0.5 ppm): 0% | mortality at 1 ppm [2, 7]: 13% | mortality at 10 ppm [2, 7]: 88% | Average Control % ([4]; 0 + 0.5 ppm): 0% | Average Control % ([5]; 0.1 ppm): 0% | Average Control % ([5]; 0.5 ppm): 50% | Average Control % ([6]; 0 ppm (so in the source)): 0%

C[C@@H]1C(=O)O[C@H]2C[C@@]34[C@H]5C[C@@H](C(C)(C)C)[C@]36[C@@H](OC(=O)[C@@H]6O)O[C@@]4(C(=O)O5)[C@]21O [Ginkolide A, ginkgolide A]
Average Control % [observed mortality] [2]: 13%

O=[N+]([O-])NC1=NCCN1Cc1ccc(Cl)nc1 [Imidacloprid, imidacloprid]
Average Control % ([3]; 10 ppm): 0% | Average Control % ([5]; 0.4 ppm): 0% | Average Control % ([6]; 10 ppm): 25%

O=C(NC(=O)c1c(F)cccc1F)Nc1cc(Cl)c(F)c(Cl)c1F [Teflubenzuron, teflubenzuron]
Average Control % ([1]; 2 ppm): 0% | Average Control % ([5]; 50 ppm): 0%

Cc1c(COC(=O)[C@@H]2[C@H](/C=C(\Cl)C(F)(F)F)C2(C)C)cccc1-c1ccccc1 (racemic) [Bifenthrin, bifenthrin]
Average Control % ([4]; 40 + 0 ppm): 0%

Reference: patent US12102085B2, “Insecticidal active mixtures comprising carboxamide compound” (priority 2013, dated 2024)
